Tested on: histone deacetylase (HDAC)
Assay: cellular acetylation assay (acetylation of histones monitored in PC3 cells, ELISA)
Format: cell-based
Conditions: PC3 human prostate carcinoma cells; compound 1 uM; 24 h incubation; antibodies against acetylated histone H3 or H4
Procedure: Therein, acetylation of histones is monitored in PC3 cells. High acetylation means inhibition of histone deacetylase by compounds. Cell viability is monitored in parallel to estimate the cytotoxicity of the compounds.
PC3 cells, human prostate carcinoma cells, are seeded as 1800 cells per well of 384-well microtiterplate in RPMI 1640 (including 5% FCS, 2 mM glutamine and pen/strep). After 48 h at 37° C., pre-diluted compounds are added at a final concentration of 1 uM. Compounds are pre-diluted 1:10 in dimethyl sulfoxide (DMSO) or medium resulting in a final concentration of DMSO of 0.5%.
After 24 h, incubation the cell viability is determined by adding cell proliferation reagent WST1. Another 60 min. later, the optical density (OD) is measured (450 nm versus 690 nm).
After WST1 assay, the cell layer is prepared for the ELISA reaction. Medium is aspirated and cells are fixed in ethanol at −20° C. for 60 min. After washing with PBS/Tween, the blocking solution (PBS/ 5% FCS/Tween) is added and the cell layer is washed again. Antibodies against histone H3 or H4 (Anti-Acetylated Histone (rabbit polyclonal IgG), Upstate Biotechnologie) are added at a dilution of 1:200 for 60 min at 37° C. As a second antibody, goat anti-rabbit IgG(H+L) human IgG adsorbed-HRP conjugate (Dako) is used (1:2000 diluted). Cells are washed 3 times and the peroxidase substrate ABTS is allowed to react for 30–60 min at 37° C. Oxalic acid stops the reaction, and the OD is measured at 405 nm.
The percentage of acetylation is calculated after subtraction of blank O.D.s: […]

Row | Compound | cell acetylation (PC3, 1 μM) [% of control]
1 | CC(=O)Nc1ccc(C(=O)Nc2ccccc2N)cc1 [CI 994, reference compound] | 152 % of control
2 | Nc1ccccc1NC(=O)c1ccc(CNC(=O)C2CCCC2)s1 [Example 4-1, 5-[(Cyclopentanecarbonyl-amino)-methyl]-thiophene-2-carboxylic acid (2-amino-phenyl)-amide] | 170 % of control
3 | CCOCC(=O)NCc1ccc(C(=O)Nc2ccccc2N)s1 [Example 4-3, 5-[(2-Ethoxy-acetylamino)-methyl]-thiophene-2-carboxylic acid (2-amino-phenyl)-amide] | 194 % of control
4 | CCCC(=O)NCc1ccc(C(=O)Nc2ccccc2N)s1 [Example 4-6, 5-(Butyrylamino-methyl)-thiophene-2-carboxylic acid (2-amino-phenyl)-amide] | 238 % of control
5 | Nc1ccccc1NC(=O)c1ccc(CNC(=O)CC2C=CCC2)cc1 (stereo not drawn) [Example 4-31, N-(2-Amino-phenyl)-4-[(2-cyclopent-2-enyl-acetylamino)-methyl]-benzamide] | 176 % of control
6 | CCC(C)CNC(=O)NCc1ccc(C(=O)Nc2ccccc2N)s1 (stereo not drawn) [Example 6-8, 5-[3-(2-Methyl-butyl)-ureidomethyl]-thiophene-2-carboxylic acid (2-amino-phenyl)-amide] | 198 % of control
7 | C=CCNC(=O)NCc1ccc(C(=O)Nc2ccccc2N)s1 [Example 6-12, 5-[(3-Allyl-ureido)-methyl]-thiophene-2-carboxylic acid (2-amino-phenyl)-amide] | 170 % of control
8 | CC(C)CNC(=O)NCc1ccc(C(=O)Nc2ccccc2N)s1 [Example 6-13, 5-(3-Isobutyl-ureidomethyl)-thiophene-2-carboxylic acid (2-amino-phenyl)-amide] | 178 % of control
9 | CN(C)CC(C)(C)CNC(=O)NCc1ccc(C(=O)Nc2ccccc2N)cc1 [Example 6-19, N-(2-Amino-phenyl)-4-[3-(3-dimethylamino-2,2-dimethyl-propyl)-ureidomethyl]-benzamide] | 205 % of control
10 | CCCCCC(C)NC(=O)NCc1ccc(C(=O)Nc2ccccc2N)cc1 (stereo not drawn) [Example 6-25, N-(2-Amino-phenyl)-4-[3-(1-methyl-hexyl)-ureidomethyl]-benzamide] | 192 % of control
11 | CCOCCCNC(=O)NCc1ccc(C(=O)Nc2ccccc2N)cc1 [Example 6-26, N-(2-Amino-phenyl)-4-[3-(3-ethoxy-propyl)-ureidomethyl]-benzamide] | 179 % of control
12 | C=CCNC(=O)NCc1ccc(C(=O)Nc2ccccc2N)cc1 [Example 6-27, 4-[(3-Allyl-ureido)-methyl]-N-(2-amino-phenyl)-benzamide] | 175 % of control
13 | CC(C)OCCCNC(=O)NCc1ccc(C(=O)Nc2ccccc2N)cc1 [Example 6-28, N-(2-Amino-phenyl)-4-[3-(3-isopropoxy-propyl)-ureidomethyl]-benzamide] | 177 % of control
14 | Nc1ccccc1NC(=O)c1ccc(CNC(=O)NCC2CC2)cc1 [Example 6-29, N-(2-Amino-phenyl)-4-(3-cyclopropylmethyl-ureidomethyl)-benzamide] | 187 % of control
15 | CCCCCNC(=O)NCc1ccc(C(=O)Nc2ccccc2N)cn1 [Example 6-38, N-(2-Amino-phenyl)-6-[(3-pentyl-ureido)-methyl]-nicotinamide] | 178 % of control

Source: patent US7098247B2, “Arylene-carboxylic acid (2-amino-phenyl)-amide derivatives” (Hoffmann-La Roche Inc., priority 2002, dated 2006)
